One molecule from patent US10759754B2, “Aminobenzoic acid derivatives for use as anti-inflammatory agents, anti-metastatic agents and/or anticancer agents” (3R VALO, S.E.C., priority 2016, dated 2020) can be followed below.

One data set concerns STAT1. The data set can be described thus: Western blot of phosphorylated STAT1 in IFNγ-activated human macrophages. It counts as cell-based. The conditions noted are these: human macrophages pretreated 30 min at 10 and 50 μM; 30 min activation with 50 U/mL IFNγ. How it is done: (§1) Cell signaling studies: THP1-derived human macrophages (750×10^3 cells/mL) and MB49-I cells (500×10^3 cells/mL) were pretreated for 30 min with vehicle (DMSO), compounds 4 and 5, at 10, 25 or 50 μM; and then washed and recovered immediately (t=0 min) or after 30 min of activation with 50 U/mL IFNγ, 25 ng/mL IL6, or 10 ng/mL TNFα. Cell lysates were prepared and analyzed by immunoblotting as described.^21-23,25 Briefly, protein samples were resolved by SDS-PAGE under reducing conditions and transferred onto a PVDF membrane. Blots were first probed with rabbit polyclonal antibodies against phospho-STAT1 (pSTAT1), pSTAT3, or p-IκB (all at 1:2000) overnight at 4° C. Blots were then incubated with HRP-conjugated goat anti-rabbit IgG Ab (1:3000) for 1 h at room temperature. The same blots were stripped and then probed with anti-STAT1 or anti-STAT3 Abs (both at 1:1000). In both cases, probed molecules were visualized using an enhancement chemiluminescence detection kit (Thermo Fisher Scientific).

Data set [1] has as its system IL6/STAT3 signaling pathway. Description: Western blot of IL6/STAT3 signaling in MB49-I cells. In kind it is cell-based, murine. The conditions noted are these: doses as lower as 10 μM. How it is done: as §1
The subject of the next data set is UBC cell line MB49-I. Description: IFNγ/TNFα-induced NO production (Griess) in MB49-I cells. The conditions noted are these: 10 and 50 μM. It counts as cell-based, murine. How it is done: Evaluation of NO and Urea production by chemical methods. The MB49-I cells and the J774A.1 cells (25×10^3 cells/well) were grown and pretreated, as indicated, with various anti-inflammatory derivatives, precursors and mono-functional derivatives for a period of 3 h. Afterwards the cells were washed twice with 10% FBS RPMI-1640 and then activated to produce NO for a period of 24 h with cytokines INFγ and TNFα. NO production was measured using the Griess reagent method as previously described.^27 This method involves the detection of nitrite ions (NO2^−) formed by the spontaneous oxidation of NO under physiological conditions. According the manufacture procedure (Life Technologies; # G-7921), equal volumes of sulfanilic acid and N-(1-naphthyl)ethylenediamine are mixed together to form the Griess reagent. In the presence of NO2^−, sulfanilic acid is converted to a diazonium salt, which in turn is coupled to N-(1-naphthyl)ethylenediamine to produce a pink coloration that is measured with a spectrophotometer (Biotek, synergy HT) at 548 nm. In the same manner, urea synthesis through arginase-1 activity was measured using commercially available kit.

The subject of the next data set is CD40. Description: Flow cytometry of CD40 surface antigen in IFNγ-activated human macrophages. The conditions noted are these: compound 4 at 10 μM, compound 5 at 25 μM. It counts as cell-based. How it is done: Surface antigen expression analysis. To study membrane receptor expression, THP1-derived human macrophages (750×10^4 cells/mL) were pretreated for 3 h with DMSO or compounds 4 and 5, and then left untreated (control) or treated for 48 h with 50 U/mL IFNγ. The expression level of MHC-II and CD40 was evaluated by flow cytometry as described.^21-23

For the next data set, the system named is MB49 tumors. The data set can be described thus: Ectopic UBC model, non-muscle invasive MB49 tumors in male mice. In kind it is in vivo. The conditions noted are these: i.p. 90 and 150 μM. How it is done:
Ectopic UBC model. Male C57BL/6J mice (6-8 weeks old), each weighing 15-18 g, were used for the experiments (supplied by Charles River). The mice were housed with free access to food and water on a 12:12 h light:dark cycle with the room temperature maintained at 21° C. MB49 cells, MB49-I cells, and iNOS-deficient MB49-I cells ([…] in 100 μL PBS) were injected subcutaneously (s.c.) into the right flank of the mice. Growth rates of the s.c. tumors were monitored. The size of tumors was determined every 3 days for 24-28 days using a digital caliper and by measuring luciferin luminescence at days 15 and 25 using the IVIS imaging system. A blinded observer measured tumor length and width. The volume of the tumor was calculated from the formula: Length×width2×0.52, where length and width were tumor diameters measured with calipers in mutually perpendicular directions. At a tumor size of approximately 10 mm^3 the mice were divided into different groups. A control group received PBS as treatment. As indicated, other groups were treated at different doses (90, 150 or 300 μM) with an intraperitoneal (i.p.) injection of compounds 4 or 8 every 3-4 days for 18-20 days.^24,27

A further data set has as its system MDA-MB-241 cells. Description: 3D spheroid-based tumor invasion assay. It counts as cell-based, human. The conditions noted are these: 30 μM, day 4 vs day 0. As for the experimental part:
Cellular analysis of 3D spheroid-based tumor invasion assays. Cell preparation and spheroid formation were performed following the manufacturer instructions (Corning). Briefly, MDA-MB-231 cells were harvested and diluted to a concentration of 5×10^4 cells/mL in (complete) culture media supplemented with 10% serum. 100 μL of cell suspension was then pipetted to appropriate 96 well spheroid formation plate and placed at 37° C./5% CO2. Spheroid formation was monitored every 24 hours. The typical cell aggregation period was 48 hours. Upon spheroid formation completion, 70 μL of complete medium was removed from each well, and replaced by 70 μL of serum-free medium. This was repeated on a daily basis to create a serum starvation period of 48 hours. Matrigel matrix (100 μL) was then added to each well. The plate was centrifuged at 300×g for 5 minutes in a swinging bucket centrifuge. The plate was then transferred to a 37° C./5% CO2 incubator for one hour to initiate gel formation. Following the 1-hour gel formation incubation period, DMSO or compound 4 was added to appropriate wells during 60 minutes. After pretreatment, the media was removed and replaced by complete culture media, and then the media was changed every day for a period of 4 days. […] These protrusions were identified, and their area and perimeter properly quantified using the ImageJ software (National Institutes of Health).

Another data set deals with human UBC T24 cells. Description: Microinvasion assay (matrigel in Boyden chamber), M1-induced T24 cell invasion. It counts as cell-based. As for the experimental part: Microinvasion assays. Invasion was measured by assessment of human UBC T24 cell migration rate through an artificial basement membrane in a modified Boyden chamber (HTS Transwell System). Briefly, the membrane consisted of a polycarbonate filter with 0.4 μm pores diameter and was coated on ice with Matrigel (BD Biosciences) diluted 1:2 (v/v) in serum-free culture media. T24 cells (50×10^3 cells) were seeded into the Matrigel coat in the upper well of the chamber, while polarized M1 macrophages (50×10^3 cells) were seeded in the lower well. The polycarbonate filter with 0.4 μm pores diameter is too small to left the cells move to the bottom of the lower wells. Thus, non-invading cells into the matrigel coat were removed and cells that migrated down to the polycarbonate filter were stained with Hoescht 33258 dye after a 48-h incubation period, visualized by fluorescence microscopy and counted.

In the next data set the test system is C57Bl/6J mice. Description: Acute toxicity study with episodic i.p. injections in C57Bl/6J mice. In kind it is in vivo.
Where [2] appears, read: i.p. 0, 90, 150, 300 μM during 3 weeks.

SMILES strings stand for the structures. Entries after “also recorded” stand apart in the source; their conditions may differ.

With `CC(C)(C)OC(=O)NNC(=O)c1ccc(N2C(=O)C=CC2=O)cc1` [Compound 4, N′-[4-(2,5-dioxo-2,5-dihydro-pyrrol-1-yl)-benzoyl]-hydrazine carboxylic acid tert-butyl ester], the “IFNγ-induced STAT1 activation (ratio of phosphorylated/no phosphorylated proteins)” value in the data set on STAT1 is listed as “decreased; also recorded: efficiently inhibited”. For the same molecule, the “IL6/STAT3 signaling pathway (Western blot)” value in data set [1] is listed as “inhibit; also recorded: efficiently inhibited”. For the same molecule, the “combined IFNγ/TNFα-induced NO synthesis” value in the data set with UBC cell line MB49-I was “efficiently inhibited”. In addition, the “IFNγ-induced CD40 expression” value in the data set with CD40 is “effective in reducing; also recorded: efficiently inhibited”. For the same molecule, in the data set with MB49 tumors, the “size of subcutaneously implanted MB49 tumors” value is reported as “significant reduction; also recorded: significantly reduce”. The “invasiveness activity in 3D spheroid-based tumor invasion assay” value in the data set on MDA-MB-241 cells is reported as “anti-invasion properties; also recorded: efficiently inhibited”. Moreover, in the data set on human UBC T24 cells, the “M1-induced human UBC T24 cell invasion” value is recorded as “efficiently inhibited”. Moreover, in the data set with C57Bl/6J mice (concentrations up to 300 μM), the tolerability in mice result is reported as “well tolerated”. Moreover, in the data set with C57Bl/6J mice (setting [2]), the hematocrit result is “no obvious effect”; the “normal development and viability” value is “no obvious effect”; the organs weight result was “no obvious effect”. The “liver histological analysis (hepatocellular injury, inflammation, fibrosis, steatosis)” value with C57Bl/6J mice (i.p. up to 300 μM during 3 weeks) is given as “no evidence of toxicity; also recorded: does not induce features of liver dysfunction”.
